Assays:
Assay in all cases: Test D controlled growth environment herbicide test, pre- and postemergence
Format in all cases: in vivo
[1] = test system: barley, winter (winter barley, Hordeum vulgare)
Outline: (§1)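 Species sown in silt loam and sprayed preemergence, or grown in peat-based medium to 2–18 cm (1- to 4-leaf stage) and sprayed postemergence, with compounds in non-phytotoxic solvent plus surfactant. Visual injury scored versus controls after 14–21 d in a controlled environment, 0 (no effect) to 100 (complete control).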

[2] = test system: kochia (Kochia scoparia)
Outline: as §1

[3] = test system: pigweed (Amaranthus retroflexus)
Outline: as §1

[4] = test system: windgrass (Apera spica-venti)
Outline: as §1

[5] = test system: chickweed (common chickweed, Stellaria media)
Outline: as §1

[6] = test system: Russian thistle (Salsola kali)
Outline: as §1

[7] = test system: bromegrass, downy (downy bromegrass, Bromus tectorum)
Outline: as §1

[8] = test system: buckwheat, wild (wild buckwheat, Polygonum convolvulus)
Outline: as §1

[9] = test system: field violet (Viola arvensis)
Outline: as §1

[10] = test system: galium (catchweed bedstraw, Galium aparine)
Outline: as §1

[11] = test system: radish, wild (wild radish, Raphanus raphanistrum)
Outline: as §1

[12] = test system: canarygrass (Phalaris minor)
Outline: as §1

[13] = test system: oat, wild (wild oat, Avena fatua)
Outline: as §1

[14] = Postemergence, 31 g ai/ha, scale 0 to 100 (0 no effect, 100 complete control)
[15] = Postemergence, 125 g ai/ha, visual rating on scale 0 (no effect) to 100 (complete control), 14 to 21 d
[16] = Postemergence, 250 g ai/ha, scale 0 to 100 (0 no effect, 100 complete control)
[17] = Preemergence, 62 g ai/ha, scale 0 to 100 (0 no effect, 100 complete control)
[18] = Preemergence, 125 g ai/ha, scale 0 to 100 (0 no effect, 100 complete control)
[19] = Preemergence, 250 g ai/ha, scale 0 to 100 (0 no effect, 100 complete control)
[20] = postemergence, 62 g ai/ha, scale 0 to 100, 0 no effect, 100 complete control

C#CCOC(=O)Oc1c(C)nn(C)c(=O)c1-c1c(C)sc2ccc(C)cc12 [Compound 87]
Barley, Winter plant response rating [1, 14]: 0
Plant response rating, Barley, Winter [1, 15]: 5
Plant response rating, Barley, Winter [1, 16]: 5
Plant response rating (scale of 0 to 100), Barley, Winter ([1]; Preemergence, 31 g ai/ha): 0
Plant response rating, Barley, Winter [1, 17]: 0
Plant response rating, Barley, Winter [1, 18]: 10
Plant response rating, Barley, Winter [1, 19]: 25
Plant response rating, Barley, Winter [1, 20]: 0
Kochia plant response rating [2, 14]: 85
Plant response rating, Kochia [2, 15]: 90
Plant response rating, Kochia [2, 16]: 95
Plant response rating (scale of 0 to 100), Kochia ([2]; Preemergence, 31 g ai/ha): 0
Plant response rating (scale of 0 to 100), Kochia ([2]; Preemergence, 62 g ai/ha): 55
Plant response rating, Kochia [2, 18]: 100
Plant response rating, Kochia [2, 19]: 100
Plant response rating, Kochia [2, 20]: 90
Pigweed plant response rating [3, 14]: 95
Plant response rating, Pigweed [3, 15]: 100
Plant response rating, Pigweed [3, 16]: 100
Plant response rating (scale of 0 to 100), Pigweed ([3]; Preemergence, 31 g ai/ha): 50
Plant response rating (scale of 0 to 100), Pigweed ([3]; Preemergence, 62 g ai/ha): 100
Plant response rating, Pigweed [3, 18]: 100
Plant response rating, Pigweed [3, 19]: 100
Plant response rating, Pigweed [3, 20]: 100
Windgrass plant response rating [4, 14]: 80
Plant response rating, Windgrass [4, 15]: 85
Plant response rating, Windgrass [4, 16]: 100
Plant response rating (scale of 0 to 100), Windgrass ([4]; Preemergence, 31 g ai/ha): 80
Plant response rating (scale of 0 to 100), Windgrass ([4]; Preemergence, 62 g ai/ha): 80
Plant response rating, Windgrass [4, 18]: 85
Plant response rating, Windgrass [4, 19]: 100
Plant response rating, Windgrass [4, 20]: 85
Chickweed plant response rating [5, 14]: 85
Plant response rating, Chickweed [5, 15]: 100
Plant response rating, Chickweed [5, 16]: 100
Plant response rating (scale of 0 to 100), Chickweed ([5]; Preemergence, 31 g ai/ha): 100
Plant response rating (scale of 0 to 100), Chickweed ([5]; Preemergence, 62 g ai/ha): 100
Plant response rating, Chickweed [5, 18]: 100
Plant response rating, Chickweed [5, 19]: 100
Plant response rating, Chickweed [5, 20]: 90
Russian Thistle plant response rating [6, 14]: 60
Plant response rating, Russian Thistle [6, 15]: 65
Plant response rating, Russian Thistle [6, 16]: 75
Plant response rating (scale of 0 to 100), Russian Thistle ([6]; Preemergence, 31 g ai/ha): 5
Plant response rating (scale of 0 to 100), Russian Thistle ([6]; Preemergence, 62 g ai/ha): 15
Plant response rating, Russian Thistle [6, 18]: 85
Plant response rating, Russian Thistle [6, 19]: 100
Plant response rating, Russian Thistle [6, 20]: 65
Bromegrass, Downy plant response rating [7, 14]: 45
Plant response rating, Bromegrass, Downy [7, 15]: 65
Plant response rating, Bromegrass, Downy [7, 16]: 65
Plant response rating (scale of 0 to 100), Bromegrass, Downy ([7]; Preemergence, 31 g ai/ha): 25
Plant response rating, Bromegrass, Downy [7, 17]: 65
Plant response rating, Bromegrass, Downy [7, 18]: 75
Plant response rating, Bromegrass, Downy [7, 19]: 80
Plant response rating, Bromegrass, Downy [7, 20]: 65
Buckwheat, Wild plant response rating [8, 14]: 85
Plant response rating, Buckwheat, Wild [8, 15]: 100
Plant response rating, Buckwheat, Wild [8, 16]: 100
Plant response rating (scale of 0 to 100), Buckwheat, Wild ([8]; Preemergence, 31 g ai/ha): 0
Plant response rating, Buckwheat, Wild [8, 17]: 0
Plant response rating, Buckwheat, Wild [8, 18]: 0
Plant response rating, Buckwheat, Wild [8, 19]: 60
Plant response rating, Buckwheat, Wild [8, 20]: 100
Field Violet plant response rating [9, 14]: 80
Plant response rating, Field Violet [9, 15]: 100
Plant response rating, Field Violet [9, 16]: 100
Plant response rating (scale of 0 to 100), Field Violet ([9]; Preemergence, 31 g ai/ha): 80
Plant response rating (scale of 0 to 100), Field Violet ([9]; Preemergence, 62 g ai/ha): 85
Plant response rating, Field Violet [9, 18]: 95
Plant response rating, Field Violet [9, 19]: 100
Plant response rating, Field Violet [9, 20]: 85
Galium plant response rating [10, 14]: 85
Plant response rating, Galium [10, 15]: 100
Plant response rating, Galium [10, 16]: 100
Plant response rating (scale of 0 to 100), Galium ([10]; Preemergence, 31 g ai/ha): 15
Plant response rating (scale of 0 to 100), Galium ([10]; Preemergence, 62 g ai/ha): 40
Plant response rating, Galium [10, 18]: 60
Plant response rating, Galium [10, 19]: 80
Plant response rating, Galium [10, 20]: 100
Radish, Wild plant response rating [11, 14]: 15
Plant response rating, Radish, Wild [11, 15]: 30
Plant response rating, Radish, Wild [11, 16]: 60
Plant response rating (scale of 0 to 100), Radish, Wild ([11]; Preemergence, 31 g ai/ha): 45
Plant response rating (scale of 0 to 100), Radish, Wild ([11]; Preemergence, 62 g ai/ha): 65
Plant response rating, Radish, Wild [11, 18]: 75
Plant response rating, Radish, Wild [11, 19]: 95
Plant response rating, Radish, Wild [11, 20]: 20
Canarygrass plant response rating [12, 14]: 55
Plant response rating, Canarygrass [12, 15]: 85
Plant response rating, Canarygrass [12, 16]: 90
Plant response rating (scale of 0 to 100), Canarygrass ([12]; Preemergence, 31 g ai/ha): 85
Plant response rating (scale of 0 to 100), Canarygrass ([12]; Preemergence, 62 g ai/ha): 90
Plant response rating, Canarygrass [12, 18]: 90
Plant response rating, Canarygrass [12, 19]: 95
Plant response rating, Canarygrass [12, 20]: 80
Oat, Wild plant response rating [13, 14]: 85
Plant response rating, Oat, Wild [13, 15]: 98
Plant response rating, Oat, Wild [13, 16]: 100
Plant response rating (scale of 0 to 100), Oat, Wild ([13]; Preemergence, 31 g ai/ha): 80
Plant response rating (scale of 0 to 100), Oat, Wild ([13]; Preemergence, 62 g ai/ha): 85
Plant response rating, Oat, Wild [13, 18]: 90
Plant response rating, Oat, Wild [13, 19]: 95
Plant response rating, Oat, Wild [13, 20]: 95

— patent US10597388B2, “Pyridazinone herbicides” (FMC CORPORATION, priority 2014, dated 2020)
